Assays:
[1] = biological target: T1, Alpha-2C adrenergic receptor (Homo sapiens, UniProt P18825); experiment: DRUGMATRIX: Adrenergic Alpha-2C radioligand binding (ligand: [3H] MK-912); assay type: cell membranes, Sf9, Membrane; details: sf9
T1 sequence (P18825 whole entry): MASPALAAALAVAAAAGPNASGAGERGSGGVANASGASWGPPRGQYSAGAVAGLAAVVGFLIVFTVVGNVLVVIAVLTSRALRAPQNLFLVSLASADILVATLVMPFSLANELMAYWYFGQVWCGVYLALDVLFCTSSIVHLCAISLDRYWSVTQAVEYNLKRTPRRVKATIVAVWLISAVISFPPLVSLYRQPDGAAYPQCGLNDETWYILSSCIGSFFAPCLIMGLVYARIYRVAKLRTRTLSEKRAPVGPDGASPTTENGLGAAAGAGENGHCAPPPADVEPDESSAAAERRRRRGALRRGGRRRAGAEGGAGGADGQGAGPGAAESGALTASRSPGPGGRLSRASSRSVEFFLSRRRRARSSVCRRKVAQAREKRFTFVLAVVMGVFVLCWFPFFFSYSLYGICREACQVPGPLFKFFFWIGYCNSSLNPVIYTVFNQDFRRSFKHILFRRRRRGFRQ

[2] = DRUGMATRIX: Serotonin (5-Hydroxytryptamine) 5-HT3 radioligand binding (ligand: [3H] GR-65630); assay type: cell membranes, Membrane; details: hek293; Not Active = under 50% inhibition at 10 µM
[3] = biological target: T2, C-X-C chemokine receptor type 1 (Homo sapiens, UniProt P25024); note: in other assays of this panel Not Active means under 50% inhibition at 10 µM
T2 sequence (P25024 whole entry): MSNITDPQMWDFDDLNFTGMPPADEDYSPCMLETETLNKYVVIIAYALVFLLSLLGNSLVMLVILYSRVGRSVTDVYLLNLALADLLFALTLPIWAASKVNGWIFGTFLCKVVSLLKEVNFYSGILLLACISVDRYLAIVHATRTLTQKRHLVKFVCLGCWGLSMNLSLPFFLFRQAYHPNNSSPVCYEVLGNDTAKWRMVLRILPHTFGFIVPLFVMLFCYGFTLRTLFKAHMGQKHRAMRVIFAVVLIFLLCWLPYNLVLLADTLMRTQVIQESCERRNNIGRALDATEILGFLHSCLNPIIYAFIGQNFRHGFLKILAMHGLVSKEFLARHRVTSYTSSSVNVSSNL

[4] = biological target: T3, C-X-C chemokine receptor type 2 (Homo sapiens, UniProt P25025); assay type: cell membranes, CHO-K1, Membrane; details: cho-k1; note: in other assays of this panel Not Active means under 50% inhibition at 10 µM
T3 sequence (P25025 whole entry): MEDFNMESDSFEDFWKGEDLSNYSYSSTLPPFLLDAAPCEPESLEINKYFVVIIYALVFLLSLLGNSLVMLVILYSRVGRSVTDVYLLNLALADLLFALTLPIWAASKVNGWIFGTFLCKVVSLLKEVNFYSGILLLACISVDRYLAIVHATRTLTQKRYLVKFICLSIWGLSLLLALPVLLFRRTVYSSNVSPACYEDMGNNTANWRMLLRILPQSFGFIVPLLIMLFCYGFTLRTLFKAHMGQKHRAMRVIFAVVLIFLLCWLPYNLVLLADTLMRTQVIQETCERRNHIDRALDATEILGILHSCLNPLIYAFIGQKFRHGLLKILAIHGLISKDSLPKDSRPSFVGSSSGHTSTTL

[5] = biological target: Melanocortin receptor 4 (Homo sapiens, UniProt P32245); assay type: cell membranes, Membrane; details: hek293; note: in other assays of this panel Not Active means under 50% inhibition at 10 µM
Melanocortin receptor 4, sequence (P32245 whole entry): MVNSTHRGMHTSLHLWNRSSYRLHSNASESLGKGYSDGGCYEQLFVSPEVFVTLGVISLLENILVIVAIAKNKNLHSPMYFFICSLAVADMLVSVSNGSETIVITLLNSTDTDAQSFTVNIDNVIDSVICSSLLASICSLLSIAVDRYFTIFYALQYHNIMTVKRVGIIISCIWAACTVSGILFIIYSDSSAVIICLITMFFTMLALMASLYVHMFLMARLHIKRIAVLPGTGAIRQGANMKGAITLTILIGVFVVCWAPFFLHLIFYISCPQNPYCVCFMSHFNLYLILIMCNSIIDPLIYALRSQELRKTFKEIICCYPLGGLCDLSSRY

[6] = biological target: Protein kinase C alpha type (Homo sapiens, UniProt P17252); assay type: cell-based; details: sf9;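 note: inhibition of PKCalpha kinase activity measured in an enzyme assay with histone as the phosphorylation substrate; in other assays of this panel Not Active means under 50% inhibition at 10 µM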

O=[As][O-].[Na+] [SODIUM ARSENITE]
Not Active: IC50 [1] | IC50 [2] | Ki [2] | IC50 [3] | IC50 [4] | IC50 [5] | IC50 [6]

Cc1ccc(Cl)c(Nc2ccccc2C(=O)O)c1Cl [MECLOFENAMIC ACID]
Not Active: IC50 [1] | IC50 [2] | Ki [2] | IC50 [3] | IC50 [4] | IC50 [5] | IC50 [6]

CCOC(=O)C1=C(C)NC(C)=C(C(=O)OCC)C1c1ccccc1/C=C/C(=O)OC(C)(C)C [LACIDIPINE]
Not Active: IC50 [1] | IC50 [2] | Ki [2] | IC50 [3] | IC50 [4] | IC50 [5] | IC50 [6]

O=C(c1ccccc1)c1ccc2n1CCC2C(=O)O (configuration not stated) [KETOROLAC]
Not Active: IC50 [1] | IC50 [2] | Ki [2] | IC50 [3] | IC50 [4] | IC50 [5] | IC50 [6]

CCN(CC)N=O [N-NITROSODIETHYLAMINE]
Not Active: IC50 [1] | IC50 [2] | Ki [2] | IC50 [3] | IC50 [4] | IC50 [5] | IC50 [6]

CO[C@@]12[C@H](COC(N)=O)C3=C(C(=O)C(C)=C(N)C3=O)N1C[C@@H]1N[C@@H]12 [MITOMYCIN]
Not Active: IC50 [1] | IC50 [2] | Ki [2] | IC50 [3] | IC50 [4] | IC50 [5] | IC50 [6]

Cc1ccc(S(=O)(=O)NC(=O)NN2CCCCCC2)cc1 [TOLAZAMIDE]
Not Active: IC50 [1] | IC50 [2] | Ki [2] | IC50 [3] | IC50 [4] | IC50 [5] | IC50 [6]

CCC(C)(C)C(=O)O[C@H]1C[C@@H](C)C=C2C=C[C@H](C)[C@H](CC[C@@H]3C[C@@H](O)CC(=O)O3)[C@H]21 [SIMVASTATIN]
Not Active: IC50 [1] | IC50 [2] | Ki [2] | IC50 [3] | IC50 [4] | IC50 [5] | IC50 [6]

LEAD(IV) ACETATE
Not Active: IC50 [1] | Ki [1] | IC50 [2] | Ki [2] | IC50 [3] | Ki [3] | IC50 [4] | Ki [4] | IC50 [5] | Ki [5] | IC50 [6] | Ki [6]

CCN1CCCC1CNC(=O)c1cc(S(N)(=O)=O)ccc1OC (configuration not stated) [SULPIRIDE]
Not Active: IC50 [1] | IC50 [2] | Ki [2] | IC50 [3] | IC50 [4] | IC50 [5] | IC50 [6]

CC[C@H](C)C(=O)O[C@H]1CCC=C2C=C[C@H](C)[C@H](CC[C@@H]3C[C@@H](O)CC(=O)O3)[C@H]21 [MEVASTATIN]
Not Active: IC50 [1] | IC50 [2] | Ki [2] | IC50 [3] | IC50 [4] | IC50 [5] | IC50 [6]

Source: ChEMBL document CHEMBL1909046, “DrugMatrix in vitro pharmacology data”
